# Active and inactive are the calls of the source. No cut-off for these calls is given here.
# Columns and labels:
# [1] = target: Beta-3 adrenergic receptor (Homo sapiens) (UniProt P13945); settings: Compound concentration 10.0 uM
# [2] = target: cAMP and cAMP-inhibited cGMP 3',5'-cyclic phosphodiesterase 10A (Mus musculus, UniProt Q8CA95); experiment: SPA with mouse PDE10A
# [3] = target: Macrophage colony-stimulating factor 1 receptor (Homo sapiens) (UniProt P07333); experiment: colony stimulating factor 1 receptor Millipore kinase panel; settings: Compound concentration 10.0 uM
# Sequence of Macrophage colony-stimulating factor 1 receptor (Homo sapiens) (P07333 whole entry): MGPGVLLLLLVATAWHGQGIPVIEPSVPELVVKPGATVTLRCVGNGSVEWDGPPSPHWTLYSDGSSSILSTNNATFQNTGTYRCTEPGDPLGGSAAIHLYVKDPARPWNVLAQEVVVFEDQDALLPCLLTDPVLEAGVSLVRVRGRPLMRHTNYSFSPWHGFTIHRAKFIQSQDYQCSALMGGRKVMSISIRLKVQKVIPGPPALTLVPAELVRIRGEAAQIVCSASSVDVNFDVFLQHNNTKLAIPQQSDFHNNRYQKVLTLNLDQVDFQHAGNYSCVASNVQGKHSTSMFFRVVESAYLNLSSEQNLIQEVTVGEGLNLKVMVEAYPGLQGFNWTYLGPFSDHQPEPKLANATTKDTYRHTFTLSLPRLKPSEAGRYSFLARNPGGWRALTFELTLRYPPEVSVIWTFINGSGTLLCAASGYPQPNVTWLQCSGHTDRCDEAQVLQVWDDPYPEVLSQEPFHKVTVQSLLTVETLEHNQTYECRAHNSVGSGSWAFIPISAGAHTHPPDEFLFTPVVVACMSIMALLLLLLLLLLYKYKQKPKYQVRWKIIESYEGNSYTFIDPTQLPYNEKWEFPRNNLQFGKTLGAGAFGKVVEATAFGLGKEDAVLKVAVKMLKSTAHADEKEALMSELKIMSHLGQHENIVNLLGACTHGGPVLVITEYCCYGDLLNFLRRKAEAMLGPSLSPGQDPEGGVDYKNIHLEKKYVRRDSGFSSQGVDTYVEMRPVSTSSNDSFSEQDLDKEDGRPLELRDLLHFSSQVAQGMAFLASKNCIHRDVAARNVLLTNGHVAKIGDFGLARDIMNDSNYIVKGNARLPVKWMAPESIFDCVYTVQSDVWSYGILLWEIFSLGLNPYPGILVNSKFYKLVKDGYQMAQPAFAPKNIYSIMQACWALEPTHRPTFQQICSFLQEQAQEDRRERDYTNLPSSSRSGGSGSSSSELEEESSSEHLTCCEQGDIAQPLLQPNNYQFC
# [4] = target: Cyclin-dependent kinase 2/cyclin E (Homo sapiens) (UniProt P24864+P24941+O96020); experiment: cyclin-dependent kinase 2 /clyclinE Millipore kinase panel; format: protein-complex assay; settings: Compound concentration 10.0 uM
# [5] = target: Discoidin domain-containing receptor 2 (Homo sapiens) (UniProt Q16832); experiment: discoidin domain receptor tyrosine kinase 2 Millipore kinase panel; settings: Compound concentration 10.0 uM
# [6] = target: Ephrin type-A receptor 3 (Homo sapiens) (UniProt P29320); experiment: EPH receptor A3 Millipore kinase panel; settings: Compound concentration 10.0 uM
# Sequence of Ephrin type-A receptor 3 (Homo sapiens) (P29320 whole entry): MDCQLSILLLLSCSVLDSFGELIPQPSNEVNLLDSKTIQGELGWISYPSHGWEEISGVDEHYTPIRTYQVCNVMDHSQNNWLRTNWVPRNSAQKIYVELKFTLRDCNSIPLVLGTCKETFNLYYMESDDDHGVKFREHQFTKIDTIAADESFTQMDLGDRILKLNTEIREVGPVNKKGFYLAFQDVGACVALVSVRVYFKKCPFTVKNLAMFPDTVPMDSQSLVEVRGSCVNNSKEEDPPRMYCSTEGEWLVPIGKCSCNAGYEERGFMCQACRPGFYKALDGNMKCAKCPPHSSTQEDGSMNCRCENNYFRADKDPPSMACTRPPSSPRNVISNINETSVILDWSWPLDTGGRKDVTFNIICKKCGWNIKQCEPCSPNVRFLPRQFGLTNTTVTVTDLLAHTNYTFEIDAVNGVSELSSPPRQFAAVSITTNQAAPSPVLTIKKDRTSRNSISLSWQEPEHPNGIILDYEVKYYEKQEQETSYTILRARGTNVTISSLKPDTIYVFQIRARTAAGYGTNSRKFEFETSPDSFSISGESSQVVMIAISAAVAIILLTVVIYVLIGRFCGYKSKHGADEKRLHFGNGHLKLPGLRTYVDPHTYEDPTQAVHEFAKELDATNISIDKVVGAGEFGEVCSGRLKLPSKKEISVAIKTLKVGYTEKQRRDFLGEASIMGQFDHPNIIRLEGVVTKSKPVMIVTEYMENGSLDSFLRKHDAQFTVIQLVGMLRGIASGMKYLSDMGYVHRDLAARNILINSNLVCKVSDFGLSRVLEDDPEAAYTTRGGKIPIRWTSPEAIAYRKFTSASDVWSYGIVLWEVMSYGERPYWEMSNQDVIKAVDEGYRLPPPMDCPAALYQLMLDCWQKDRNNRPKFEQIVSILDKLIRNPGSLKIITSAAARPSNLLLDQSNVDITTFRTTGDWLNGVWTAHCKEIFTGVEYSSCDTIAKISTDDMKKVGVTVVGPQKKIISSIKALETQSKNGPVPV
# [7] = target: Ephrin type-B receptor 1 (Homo sapiens) (UniProt P54762); experiment: EPH receptor B1 Millipore kinase panel; settings: Compound concentration 10.0 uM
# [8] = target: Tyrosine-protein kinase Fes/Fps (Homo sapiens) (UniProt P07332); experiment: feline sarcoma oncogene Millipore kinase panel; settings: Compound concentration 10.0 uM
# [9] = target: MAP kinase-activated protein kinase 5 (Homo sapiens) (UniProt Q8IW41); experiment: mitogen-activated protein kinase-activated protein kinase 5 Millipore kinase panel; settings: Compound concentration 10.0 uM
# Sequence of MAP kinase-activated protein kinase 5 (Homo sapiens) (Q8IW41 whole entry): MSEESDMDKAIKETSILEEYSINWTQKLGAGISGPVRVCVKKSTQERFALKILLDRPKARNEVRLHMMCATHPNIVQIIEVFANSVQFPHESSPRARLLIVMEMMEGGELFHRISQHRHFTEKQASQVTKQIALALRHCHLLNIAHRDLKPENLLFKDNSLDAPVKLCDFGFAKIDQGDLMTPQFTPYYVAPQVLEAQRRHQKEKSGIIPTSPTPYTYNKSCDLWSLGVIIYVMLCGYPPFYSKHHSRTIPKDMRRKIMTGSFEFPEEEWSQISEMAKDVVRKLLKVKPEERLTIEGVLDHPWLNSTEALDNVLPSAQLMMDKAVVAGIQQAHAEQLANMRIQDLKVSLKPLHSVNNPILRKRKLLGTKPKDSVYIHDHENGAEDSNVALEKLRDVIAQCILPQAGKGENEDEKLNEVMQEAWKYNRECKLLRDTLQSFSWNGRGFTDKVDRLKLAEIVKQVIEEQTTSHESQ
# [10] = target: Mitogen-activated protein kinase 8 (Homo sapiens) (UniProt P45983); experiment: mitogen-activated protein kinase 8 Millipore kinase panel; settings: Compound concentration 10.0 uM
# [11] = target: Dual specificity mitogen-activated protein kinase kinase 1 (Homo sapiens) (UniProt Q02750); experiment: mitogen-activated protein kinase kinase 1 Millipore kinase panel; settings: Compound concentration 10.0 uM
# [12] = target: Serine/threonine-protein kinase Nek2 (Homo sapiens) (UniProt P51955); experiment: NIMA -related kinase 2 Millipore kinase panel; settings: Compound concentration 10.0 uM
# [13] = target: Serine/threonine-protein kinase Nek3 (Homo sapiens) (UniProt P51956); experiment: NIMA -related kinase 3 Millipore kinase panel; settings: Compound concentration 10.0 uM
# [14] = target: Serine/threonine-protein kinase PAK 5 (Homo sapiens) (UniProt Q9P286); experiment: p21 protein -activated kinase 5 Millipore kinase panel; settings: Compound concentration 10.0 uM
# [15] = target: Serine/threonine-protein kinase PAK 6 (Homo sapiens) (UniProt Q9NQU5); experiment: p21 protein -activated kinase 6 Millipore kinase panel; settings: Compound concentration 10.0 uM
# Sequence of Serine/threonine-protein kinase PAK 6 (Homo sapiens) (Q9NQU5 whole entry, looked up, the tested form may be a part): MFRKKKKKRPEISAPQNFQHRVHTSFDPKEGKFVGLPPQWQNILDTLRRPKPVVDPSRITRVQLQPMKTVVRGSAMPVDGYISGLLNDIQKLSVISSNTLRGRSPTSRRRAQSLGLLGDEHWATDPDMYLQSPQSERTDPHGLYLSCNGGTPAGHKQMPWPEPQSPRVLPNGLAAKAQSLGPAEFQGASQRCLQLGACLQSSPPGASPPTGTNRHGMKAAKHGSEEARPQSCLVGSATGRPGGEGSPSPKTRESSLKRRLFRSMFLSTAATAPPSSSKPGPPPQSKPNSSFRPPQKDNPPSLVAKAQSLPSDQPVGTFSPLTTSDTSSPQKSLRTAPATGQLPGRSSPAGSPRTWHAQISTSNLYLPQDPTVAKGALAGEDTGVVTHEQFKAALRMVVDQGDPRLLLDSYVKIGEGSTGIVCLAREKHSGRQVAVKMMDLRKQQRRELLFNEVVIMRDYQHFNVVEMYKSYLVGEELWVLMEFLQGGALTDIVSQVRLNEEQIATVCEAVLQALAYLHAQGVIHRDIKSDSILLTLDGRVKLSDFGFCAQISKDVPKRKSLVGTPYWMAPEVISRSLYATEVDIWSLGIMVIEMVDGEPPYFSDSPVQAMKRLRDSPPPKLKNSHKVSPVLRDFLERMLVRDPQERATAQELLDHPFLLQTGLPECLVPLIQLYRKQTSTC
# [16] = target: PAS domain-containing serine/threonine-protein kinase (Homo sapiens) (UniProt Q96RG2); experiment: PAS domain containing serine/threonine kinase Millipore kinase panel; settings: Compound concentration 10.0 uM
# Sequence of PAS domain-containing serine/threonine-protein kinase (Homo sapiens) (Q96RG2 whole entry, the tested form may be a part): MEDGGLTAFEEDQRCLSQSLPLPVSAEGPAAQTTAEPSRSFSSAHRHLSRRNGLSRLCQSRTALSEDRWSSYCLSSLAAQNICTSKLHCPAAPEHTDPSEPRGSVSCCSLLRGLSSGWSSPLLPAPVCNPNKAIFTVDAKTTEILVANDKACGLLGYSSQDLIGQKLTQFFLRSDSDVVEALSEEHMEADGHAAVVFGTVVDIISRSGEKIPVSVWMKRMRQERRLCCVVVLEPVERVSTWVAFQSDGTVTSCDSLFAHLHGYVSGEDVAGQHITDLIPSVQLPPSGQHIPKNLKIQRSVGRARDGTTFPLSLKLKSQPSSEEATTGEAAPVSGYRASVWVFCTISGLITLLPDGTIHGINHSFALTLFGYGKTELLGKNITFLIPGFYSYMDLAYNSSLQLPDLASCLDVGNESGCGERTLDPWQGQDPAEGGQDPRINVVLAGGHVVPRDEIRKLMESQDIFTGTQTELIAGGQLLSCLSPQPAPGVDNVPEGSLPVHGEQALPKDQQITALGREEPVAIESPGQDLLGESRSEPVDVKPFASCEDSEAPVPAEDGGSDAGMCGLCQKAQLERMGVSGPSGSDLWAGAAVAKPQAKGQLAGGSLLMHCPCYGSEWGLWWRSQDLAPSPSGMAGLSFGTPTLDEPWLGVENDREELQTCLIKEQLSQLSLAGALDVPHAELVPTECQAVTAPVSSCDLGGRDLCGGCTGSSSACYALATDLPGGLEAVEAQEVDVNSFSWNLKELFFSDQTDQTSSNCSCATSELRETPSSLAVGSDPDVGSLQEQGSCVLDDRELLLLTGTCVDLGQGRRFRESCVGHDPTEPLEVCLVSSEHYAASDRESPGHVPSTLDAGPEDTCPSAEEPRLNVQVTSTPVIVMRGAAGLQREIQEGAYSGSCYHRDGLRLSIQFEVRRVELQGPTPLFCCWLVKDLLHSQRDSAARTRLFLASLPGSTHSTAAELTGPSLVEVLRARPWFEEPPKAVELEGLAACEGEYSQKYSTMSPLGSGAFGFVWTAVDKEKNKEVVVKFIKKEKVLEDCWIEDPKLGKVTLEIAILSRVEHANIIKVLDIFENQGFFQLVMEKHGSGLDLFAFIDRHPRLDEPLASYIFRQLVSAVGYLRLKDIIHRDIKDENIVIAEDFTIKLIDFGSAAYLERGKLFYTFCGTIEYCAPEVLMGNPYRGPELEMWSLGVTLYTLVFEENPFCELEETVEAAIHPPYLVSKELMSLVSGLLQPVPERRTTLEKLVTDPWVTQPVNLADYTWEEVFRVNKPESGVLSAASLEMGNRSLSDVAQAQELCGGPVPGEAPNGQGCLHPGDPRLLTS
# [17] = target: Serine/threonine-protein kinase pim-1 (Homo sapiens) (UniProt P11309); experiment: pim-1 oncogene Millipore kinase panel; settings: Compound concentration 10.0 uM
# Sequence of Serine/threonine-protein kinase pim-1 (Homo sapiens) (P11309 whole entry, looked up): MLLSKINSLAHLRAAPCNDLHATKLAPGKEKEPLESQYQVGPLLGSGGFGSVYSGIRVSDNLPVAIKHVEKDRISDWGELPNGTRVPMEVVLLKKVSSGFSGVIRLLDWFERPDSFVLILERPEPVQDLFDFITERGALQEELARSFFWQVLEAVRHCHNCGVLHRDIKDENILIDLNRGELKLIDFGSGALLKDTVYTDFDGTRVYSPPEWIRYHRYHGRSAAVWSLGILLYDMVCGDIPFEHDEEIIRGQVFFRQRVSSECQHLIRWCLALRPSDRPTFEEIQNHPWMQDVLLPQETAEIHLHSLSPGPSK
# [18] = target: Protein kinase C delta type (Homo sapiens) (UniProt Q05655); experiment: protein kinase C, delta Millipore kinase panel; settings: Compound concentration 10.0 uM
# [19] = target: Ribosomal protein S6 kinase alpha-5 (Homo sapiens) (UniProt O75582); experiment: ribosomal protein S6 kinase, 90kDa, polypeptide 5 Millipore kinase panel; settings: Compound concentration 10.0 uM
# [20] = target: Serine/threonine-protein kinase 10 (Homo sapiens) (UniProt O94804); experiment: serine/threonine kinase 10 Millipore kinase panel; settings: Compound concentration 10.0 uM
# [21] = target: Serine/threonine-protein kinase Sgk3 (Homo sapiens) (UniProt Q96BR1); experiment: serum/glucocorticoid regulated kinase family, member 3 Millipore kinase panel; settings: Compound concentration 10.0 uM
# [22] = target: Tyrosine-protein kinase Tec (Homo sapiens) (UniProt P42680); experiment: tec protein tyrosine kinase (activated) Millipore kinase panel; settings: Compound concentration 10.0 uM
# [23] = target: Tyrosine-protein kinase TXK (Homo sapiens) (UniProt P42681); experiment: TXK tyrosine kinase Millipore kinase panel; settings: Compound concentration 10.0 uM
# [24] = target: Tyrosine-protein kinase ABL2 (Homo sapiens) (UniProt P42684); experiment: v-abl Abelson murine leukemia viral oncogene homolog 2 Millipore kinase panel; settings: Compound concentration 10.0 uM
# [25] = target: Serine/threonine-protein kinase WNK2 (Homo sapiens) (UniProt Q9Y3S1); experiment: WNK lysine deficient protein kinase 2 Millipore kinase panel; settings: Compound concentration 10.0 uM
# [26] = target: cAMP and cAMP-inhibited cGMP 3',5'-cyclic phosphodiesterase 10A (Homo sapiens, UniProt Q9Y233); experiment: hPDE10A2 PDE scan
# [27] = target: Melanocortin receptor 4 (Homo sapiens) (UniProt P32245); experiment: hMC4 Cerep panel; settings: Compound concentration 10.0 uM
# Sequence of Melanocortin receptor 4 (Homo sapiens) (P32245 whole entry): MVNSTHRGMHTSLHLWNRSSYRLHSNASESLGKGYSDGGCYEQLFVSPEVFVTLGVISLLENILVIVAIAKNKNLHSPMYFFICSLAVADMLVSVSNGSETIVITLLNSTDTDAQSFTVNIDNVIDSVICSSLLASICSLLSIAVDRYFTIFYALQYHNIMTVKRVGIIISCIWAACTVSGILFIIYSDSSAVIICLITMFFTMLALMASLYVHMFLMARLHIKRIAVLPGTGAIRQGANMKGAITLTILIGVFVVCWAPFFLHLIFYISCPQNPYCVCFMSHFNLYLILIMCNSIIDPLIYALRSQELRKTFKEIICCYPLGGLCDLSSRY
# [28] = target: Nociceptin receptor (Homo sapiens) (UniProt P41146); experiment: hORL1 Cerep panel; settings: Compound concentration 10.0 uM
# Rattus norvegicus [29] = species on record: Rattus norvegicus; experiment: rNa channel Cerep panel; settings: Compound concentration 10.0 uM
# [30] = target: T1, Alpha-1B adrenergic receptor (Homo sapiens) (UniProt P35368); experiment: hAb1 Cerep panel; settings: Compound concentration 10.0 uM
# T1 sequence (whole entry): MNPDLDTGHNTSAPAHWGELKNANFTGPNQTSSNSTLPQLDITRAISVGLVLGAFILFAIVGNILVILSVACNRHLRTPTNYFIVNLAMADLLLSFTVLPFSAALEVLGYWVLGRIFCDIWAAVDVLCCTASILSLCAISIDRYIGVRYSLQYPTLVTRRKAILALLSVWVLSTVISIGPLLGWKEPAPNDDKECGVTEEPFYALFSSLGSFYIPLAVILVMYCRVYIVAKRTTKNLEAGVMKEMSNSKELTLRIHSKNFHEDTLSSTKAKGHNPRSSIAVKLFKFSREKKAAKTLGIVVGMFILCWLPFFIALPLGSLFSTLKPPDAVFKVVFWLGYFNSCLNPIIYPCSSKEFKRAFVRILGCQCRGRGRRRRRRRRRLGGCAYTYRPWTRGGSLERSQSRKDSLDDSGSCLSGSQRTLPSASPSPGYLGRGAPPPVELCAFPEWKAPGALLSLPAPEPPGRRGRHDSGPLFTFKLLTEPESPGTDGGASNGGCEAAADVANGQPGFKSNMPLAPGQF
# [31] = target: Gastrin/cholecystokinin type B receptor (Homo sapiens) (UniProt P32239); experiment: hCCK2 Cerep panel; settings: Compound concentration 10.0 uM
# Rattus norvegicus [32] = species on record: Rattus norvegicus; experiment: rSKCa channel Cerep panel; settings: Compound concentration 10.0 uM
# Rattus norvegicus [33] = species on record: Rattus norvegicus; experiment: rCL channel Cerep panel; settings: Compound concentration 10.0 uM
# [34] = target: T2, 5-hydroxytryptamine receptor 3A (Homo sapiens) (UniProt P46098); experiment: h5HT3 Cerep panel; settings: Compound concentration 10.0 uM
# T2 sequence (whole entry): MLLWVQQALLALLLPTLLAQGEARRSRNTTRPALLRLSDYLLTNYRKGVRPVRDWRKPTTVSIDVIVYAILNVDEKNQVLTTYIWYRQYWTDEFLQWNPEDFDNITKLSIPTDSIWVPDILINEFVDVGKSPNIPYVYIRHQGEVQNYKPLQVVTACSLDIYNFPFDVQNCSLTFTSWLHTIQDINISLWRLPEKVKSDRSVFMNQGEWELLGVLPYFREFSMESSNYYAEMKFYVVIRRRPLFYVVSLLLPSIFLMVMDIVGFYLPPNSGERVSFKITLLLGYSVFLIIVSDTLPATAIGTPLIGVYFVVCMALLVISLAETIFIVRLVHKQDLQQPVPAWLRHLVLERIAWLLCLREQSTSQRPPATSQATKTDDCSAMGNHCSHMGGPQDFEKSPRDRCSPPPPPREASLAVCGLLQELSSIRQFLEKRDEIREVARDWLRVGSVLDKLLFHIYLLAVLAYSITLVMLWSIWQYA
# Homo sapiens = species on record: Homo sapiens; experiment: hN muscle type alpha Cerep panel; settings: Compound concentration 10.0 uM
# [35] = target: Muscarinic acetylcholine receptor M3 (Homo sapiens) (UniProt P20309); settings: Compound concentration 10.0 uM
compound,measurement,setting,value
c1ccc(C2CCN(c3cnc4c(N5CCOCC5)nccn34)CC2)cc1,inhibition,[1],2.32%
COCCc1ccc(-c2c(C)nc3c(N4CCOCC4)ccnn23)cn1 [JNJ-42396302],Ki,[2],11 nM (active)
same,inhibition,[3],4%
same,inhibition,[4],1%
same,inhibition,[5],-5%
same,inhibition,[6],4%
same,inhibition,[7],2%
same,inhibition,[8],13%
same,inhibition,[9],7%
same,inhibition,[10],-3%
same,inhibition,[11],-1%
same,inhibition,[12],-1%
same,inhibition,[13],4%
same,inhibition,[14],7%
same,inhibition,[15],5%
same,inhibition,[16],5%
same,inhibition,[17],10%
same,inhibition,[18],-2%
same,inhibition,[19],3%
same,inhibition,[20],0%
same,inhibition,[21],1%
same,inhibition,[22],7%
same,inhibition,[23],6%
same,inhibition,[24],6%
same,inhibition,[25],-1%
same,Ki,[26],13 nM
same,effect,[27],6.35%
same,effect,[28],2.15%
same,effect,Rattus norvegicus [29],-5.55%
same,effect,[30],6.55%
same,effect,[31],-5.55%
same,effect,Rattus norvegicus [32],7.4%
same,effect,Rattus norvegicus [33],-12.3%
same,effect,[34],3.35%
same,effect,Homo sapiens,-7.3%
same,inhibition,[35],6.41%

# Reference: ChEMBL document CHEMBL4800727 (2021)
